{"source": "paper PMC12801355", "about": "“Peptide Amphiphiles Hitchhike on Endogenous Biomolecules for Enhanced Cancer Imaging and Therapy” (Advanced Materials (Deerfield Beach, Fla.), 2025)", "key": {"4T1 cells": {"test_system": "4T1 cells", "test": "Uptake of SA‐E in the presence of inhibitors", "assay_type": "cell-based, mouse", "conditions": "inhibitor 10 µM, 20 min pre‐incubation, Cy5 SA‐E 20 µM, FBS free media", "method": "To explore the effect of serum proteins and different inhibitors on the cellular uptake of SA‐E, 4T1 cells were grown to near confluency in 96 well plates, as described above. For cellular uptake mechanism studies, the growth media (RPMI containing 10% FBS) was exchanged for 100 µL of FBS free media, then returned to the incubator. Inhibitors (brefeldin A, bromsulphalein, chlorpromazine hydrochloride, cis‐ACBD, filipin, heparin, methyl‐β‐cyclodextrin, or wortmannin) were made in FBS free media at a concentration of 1 mM. Then, 1 µL of media containing inhibitors was added to wells, so that the final drug concentration in each well was 10 µM. The plate was returned to the incubator for 20 min. After incubation, Cy5 conjugated SA‐E was added to all wells such that the final concentration was 20 µM per well. The plate was returned to the incubator for 30 min. Wells were aspirated and washed with PBS as above. 100 µL of FBS free media was added, and the plate was returned to the incubator for 1 h. Finally, Hoechst staining and fluorescence imaging were performed using a Leica Thunder DMi8 fluorescent microscope, as described above."}, "[1]": {"test": "Clearance study (urine and stool)", "assay_type": "in vivo, mouse", "conditions": "50 nmol IV", "method": "Six Balb/c mice were intravenously injected with 100 µL of either ICG‐conjugated SA‐E or PBS, with three mice in each group. Urine and stool samples were collected from each mouse at different time points up to 7 days. […] Urine from healthy Balb/c mice was collected and pooled to generate a calibration curve. Fluorescence of stool samples was detected using an IVIS (PerkinElmer)."}, "[2]": {"test_system": "LPs (HDL, LDL, VLDL) and albumin in pooled human plasma"}, "[3]": {"test_system": "4T1 mouse breast cancer cells", "test": "Cellular uptake of Cy5 labeled PAs", "assay_type": "cell-based", "conditions": "10 µM Cy5‐PA, 2 h incubation at 37 °C", "method": "To compare the uptake of SA‐E and SA‐K, 1 × 10^5 4T1 cells were grown to near confluency (1–2 days) in 96 well plates with black walls and flat glass bottom. 100% Cy5 conjugated PAs (20 or 10 µM) or 10% Cy5 conjugated PA micelles (10 µM Cy5‐PAs mixed with 90 µM maleimide blocked labeled PAs) were preincubated in 10% FBS containing RPMI for 30 min at 37 °C, wells were aspirated, and 100 µL of media containing PAs were added. The plate was incubated for 30 min for the experiments with 100% Cy5 conjugated PAs. Media were aspirated, wells were washed 3x with 150 µL sterile PBS, and then 100 µL RPMI containing 10% FBS was added to each well. The plate was incubated for 1 h at 37 °C. For 10% and 100% Cy5 micelle uptake comparison, plate was incubated for 2 h at 37 °C with PAs. Then, media containing PAs were aspirated and washed with PBS, as above. Cell nuclei were stained with Hoechst (1:5000 dilution in PBS) for 5 min and then removed. 100 µL of phenol red free RPMI containing 10% FBS was added to each well. […] The microscope incubator was preheated for 30 min to reach 35 °C prior to imaging.\nTo study the uptake of SA‐E or SA‐K micelles (10% or 100% Cy5 micelles) or No‐SA over time, 4T1 cells were grown to near confluency in a 96 well plate as described above. Cy5 conjugated 100% Cy5 conjugated PAs (20 µM), 10% Cy5 conjugated PAs (10 µM Cy5), or No‐SA (20 µM) or were preincubated in 10% FBS containing RPMI for 30 min at 37 °C. Cell nuclei were stained with Hoechst stain as above. Cell membranes were stained (CellBrite 488, 1:1000 in 10% FBS containing RPMI) for 30 min at 37 °C. Wells were aspirated, and 100 µL of PAs were added to the wells for ≈1 min. Wells were washed with sterile PBS (3x, 150 µL), and Confocal images were taken at different time points (up to 2 h) after PA or No‐SA addition as described above using a 60x objective."}, "[4]": {"test": "TEM imaging of PA nanostructures", "assay_type": "physicochemical", "conditions": "ICG conjugated PA, 200 µM in ultrapure water, uranyl acetate negative stain", "method": "For TEM imaging, PAs conjugated with ICG, Cy5 or MMAE were dissolved in ultrapure water at a concentration of 200 µM. Carbonfilm 200 copper mesh TEM grids were glow‐discharged first. Then, PA solutions (15 µL) were placed on the grids, incubated for 10 min before blotting, and air‐dried. 15 µL of ultrapure water was applied to wash the grid for 3 min. After incubation, the water was removed by blotting from the edge of the grid. For negative staining of the samples, a 0.4% uranyl acetate solution was prepared in ultrapure water and filtered using a 0.1 µm syringe filter. 15 µL of filtered uranyl acetate solution was applied to the grid and incubated for 5 min. Finally, TEM grids were blotted to remove excess stain and dried at room temperature. TEM imaging was performed using a Tecnai or Talos microscope (FEI)."}, "Toxicity in mice": {"test": "Toxicity in mice", "assay_type": "in vivo, mouse", "conditions": "wild type mice, 200 nmol IV, 5 mice", "method": "Wild type mice were injected intravenously with ICG conjugated SA‐E at 4 times the dose used previously for imaging (100 µL, 2 mM). 1 day later, blood was removed via cardiac puncture, placed into an EDTA tube, and then centrifuged at 1500 g for 10 min, then 2500 g for 10 min to obtain plasma. The plasma was analyzed for Aspartate Aminotransferase activity (AST) (Abcam, AB105135) and creatinine (Crystal Chem, 80350) following the manufacturer's protocol. For complete blood counts, whole blood (10 µL) was mixed with 2 mM EDTA (10 µL) and analyzed using the HemaVet 950S (Drew Scientific)."}}, "note": "Where a SMILES comes first, the peptide text is derived from it. The star is where a group is joined. Palmitoyl = CCCCCCCCCCCCCCCC(=O)*", "data": [{"molecule": "CCCCCCCCCCCCCCCC(=O)NCC(=O)NCC(=O)NCC(=O)N[C@@H](Cc1c[nH]cn1)C(=O)N[C@@H](C)C(=O)N[C@@H](C)C(=O)N[C@@H](CC(N)=O)C(=O)NCC(=O)N[C@@H](CCC(=O)O)C(=O)N[C@@H](CCC(=O)O)C(=O)N[C@@H](CS)C(=O)N[C@@H](CCC(=O)O)C(=O)O", "note": "[SA‐E] (Palmitoyl-GGGHAANGEECE-OH)", "values": [{"measurement": "cellular uptake with Filipin", "setting": "4T1 cells", "result": "decreased SA‐E uptake to a lesser extent"}, {"measurement": "cellular uptake with Methyl‐β‐cyclodextrin", "setting": "4T1 cells", "result": "Significant decreases"}, {"measurement": "cellular uptake with Wortmannin", "setting": "4T1 cells", "result": "Significant decreases"}, {"measurement": "cellular uptake with bromosulfalein (BSP)", "setting": "4T1 cells", "result": "no change"}, {"measurement": "cellular uptake with cis‐ACBD", "setting": "4T1 cells", "result": "no change"}, {"measurement": "fluorescence in urine samples", "setting": "[1]; any time point up to 7 days, plate reader", "result": "No fluorescence signal was detected"}, {"measurement": "decline of ICG signal in stool", "setting": "[1]; Balb/c mice, IVIS", "result": "mostly diminished at 2 days"}, {"measurement": "time of peak ICG signal in stool", "setting": "[1]; Balb/c mice, IVIS, n = 3", "result": 6, "unit": "h"}, {"measurement": "amount bound to albumin, lower than bound to HDL", "setting": "[2]", "result": "approximately two‐fold"}, {"measurement": "uptake of 10% Cy5 micelles relative to 100% Cy5 micelles", "setting": "[3]", "result": "no significant difference"}, {"measurement": "size of spherical micelles (TEM)", "setting": "[4]", "result": "5–10 nm"}, {"measurement": "Aspartate transferase (AST) versus control", "setting": "Toxicity in mice; 1 day", "result": "no difference"}, {"measurement": "Creatinine versus control", "setting": "Toxicity in mice; 1 day", "result": "no difference"}, {"measurement": "complete blood counts (CBC) versus control", "setting": "Toxicity in mice; blood 1 day after injection", "result": "no difference"}]}]}
